Results reported in publication PMC6155437 (Molecules : A Journal of Synthetic Chemistry and Natural …, 2017).

Target: T1, UGT1A3 (Homo sapiens, UniProt P35503)
T1 construct: tissue Corning Life Sciences; host or cells: pooled human liver microsomes (150 donors)
T1 sequence (P35503 29-534): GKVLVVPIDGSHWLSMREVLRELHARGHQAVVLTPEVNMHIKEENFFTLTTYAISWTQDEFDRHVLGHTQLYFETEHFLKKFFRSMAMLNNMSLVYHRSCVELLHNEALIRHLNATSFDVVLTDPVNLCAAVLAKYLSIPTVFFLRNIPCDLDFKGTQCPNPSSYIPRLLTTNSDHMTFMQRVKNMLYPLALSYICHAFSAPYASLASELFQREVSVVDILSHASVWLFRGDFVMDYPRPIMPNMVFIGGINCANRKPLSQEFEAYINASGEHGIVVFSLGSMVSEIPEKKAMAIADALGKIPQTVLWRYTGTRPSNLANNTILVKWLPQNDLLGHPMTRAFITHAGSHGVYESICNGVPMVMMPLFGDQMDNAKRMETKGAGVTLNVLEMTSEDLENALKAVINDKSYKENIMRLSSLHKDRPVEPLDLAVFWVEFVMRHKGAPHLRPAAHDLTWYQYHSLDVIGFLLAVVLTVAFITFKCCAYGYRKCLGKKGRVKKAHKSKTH
Assay: UGT1A3 chenodeoxycholic acid 24-acyl-glucuronidation inhibition in human liver microsomes
Type: in vitro ADME
Experimental: After 3 min of pre-incubation at 37 °C, the reactions were initiated by addition of UDPGA; incubation continued for 60 min at 37 °C in a shaking water bath. The reaction was stopped by placing the tubes on ice and adding 50 µL ice-cold acetonitrile containing internal standards (propofol glucuronide for chenodeoxycholic acid 24-acyl-β-glucuronide and mycophenolic acid glucuronide, and meloxicam for SN-38 glucuronide, trifluoperazine glucuronide, N-acetylserotonin β-D-glucuronide, and naloxone 3-β-D-glucuronide). The incubation mixtures were centrifuged (13,000× g, 4 min, 4 °C). All assays were performed in triplicate and average values were used in calculations.
The reactions were initiated by addition of UDPGA at 37 °C and stopped after 60 min by placing the incubation tubes on ice and adding 100 μL of ice-cold methanol containing propofol glucuronide (internal standard for UGT1A3) or meloxicam (internal standard for UGT2B7). The incubation mixtures were centrifuged (13,000× g, 4 min, 4 °C), and then, 50 μL of the supernatant was diluted with 50 μL of water. Aliquots (5 μL) of the diluted supernatants were analyzed by LC-MS/MS.
The metabolites formed from the six UGT cocktail substrates were measured simultaneously using the LC-MS/MS method. The ESI source settings in both positive- and negative-ion modes for metabolite ionization were: capillary voltage, 4200 V; vaporizer temperature, 350 °C; capillary temperature, 330 °C; sheath gas pressure, 35 psi; and auxiliary gas pressure, 15 psi. […] Data were processed using Xcalibur software.
The apparent kinetic parameters for inhibitory potential (Ki and kinact values) and inhibition mode were estimated from the fitted curves using the Enzyme Kinetics program (ver. 1.1; Systat Software Inc., San Jose, CA, USA).

Compound: O=C(c1cccc2ccccc12)c1cn(CCCCCF)c2ccccc12 [AM-2201, 1-(5-fluoropentyl-1H-indol-3-yl)-(naphthalene-1-yl)methanone]
- Ki: 4.3 µM
- IC50 (IC50, UGT1A3-catalyzed chenodeoxycholic acid 24-acyl-glucuronidation, abstract): 4.3 µM
- IC50 (IC50, UGT1A3 chenodeoxycholic acid 24-acyl-glucuronidation, 2 μM chenodeoxycholic acid, human liver microsomes): 6.4 µM
- Inhibition Mode (UGT1A3 chenodeoxycholic acid 24-acyl-glucuronidation): competitively inhibited
